Results as given in PubChem BioAssay (NCI).
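Assay format: 96-well plates, 48-hour exposure. GI50 is the concentration that inhibits growth by half. At the TGI there is no net growth.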

Key:
Assay in all cases: NCI tumour cell line growth inhibition, 48 h
[1] = test system: SK-MEL-5 melanoma
[2] = test system: HOP-62 NSCLC
[3] = test system: SW-620 colon
[4] = test system: HCT-15 colon
[5] = test system: UO-31 renal
[6] = test system: MOLT-4 leukemia
[7] = test system: K-562 leukemia
[8] = test system: LOX IMVI melanoma
[9] = test system: SNB-75 CNS
[10] = test system: SF-295 CNS

Structure (SMILES)	TGI [1] [µM]	TGI [2] [µM]	TGI [3] [µM]	TGI [4] [µM]	TGI [5] [µM]	TGI [6] [µM]	TGI [7] [µM]	TGI [8] [µM]	TGI [9] [µM]	TGI [10] [µM]	GI50 [1] [µM]	GI50 [2] [µM]	GI50 [3] [µM]	GI50 [4] [µM]	GI50 [5] [µM]	GI50 [6] [µM]	GI50 [7] [µM]	GI50 [8] [µM]	GI50 [9] [µM]	GI50 [10] [µM]
CCOC(=O)C1=C(C)N(C2OC(COC(C)=O)C(OC(C)=O)C(OC(C)=O)C2OC(C)=O)C(=O)NC1c1ccccc1 (stereo unspecified)	> 100	> 100	> 100	> 100	> 100	> 100	> 100	> 100	> 100	> 100	–	–	–	–	–	–	–	–	–	–
CSS(C)(=O)=O	> 100	> 100	> 100	58.8	52.1	10.1	78.6	> 100	94.1	54.5	–	–	–	–	–	–	–	–	–	–
CCCCCCC(=O)c1ccc2ccccc2c1O	> 100	> 100	> 100	> 100	> 100	> 100	> 100	> 100	> 100	> 100	–	–	–	–	–	–	–	–	–	–
COc1ccc(-c2c3c(nc4[nH]c(=S)[nH]c(=S)c24)CCCC3)cc1OC	32.6	> 100	> 100	> 100	> 100	61.2	> 100	45.3	51.2	38.8	–	–	–	–	–	–	–	–	–	–
CCCCn1c(C)c2c(c1C)C(=O)N(CCN1CCN(c3ccccc3Cl)CC1)C2=O	34.9	93.3	> 100	> 100	43.3	52.2	92.1	30.1	90.2	> 100	–	–	–	–	–	–	–	–	–	–
CCOC(=O)/C=C/c1c[nH]c(=O)[nH]c1=O	> 75	> 75	> 75	> 75	> 75	> 48.7	> 75	> 75	> 75	> 75	–	–	–	–	–	–	–	–	–	–
c1ccc(N2N=C3N(c4ccccc4)C2N3c2ccccc2)cc1	63.4	> 100	> 100	> 100	> 100	62.5	59.5	62.4	64.5	> 100	–	–	–	–	–	–	–	–	–	–
C=CCOC1OC(CS(=O)(=O)O)C(OC(C)=O)C(OC(C)=O)C1OC(C)=O (stereo unspecified)	> 100	> 100	> 100	> 100	> 100	> 100	> 100	> 100	> 100	> 100	–	–	–	–	–	–	–	–	–	–
CC(=O)OCc1nnn2c1CCC2	> 100	> 100	> 100	> 100	> 100	> 100	> 100	> 100	> 100	> 100	–	–	–	–	–	–	–	–	–	–
CCCCCCCCCC[N+](C)(C)C	3.26	3.07	10.1	17.1	20	3.43	7.82	2.95	3.69	5.81	1.73	1.18	2.13	2.49	4.91	1.59	1.82	1.41	1.26	1.97
COc1c2occc2cc2ccc(=O)oc12	> 100	> 100	> 100	> 100	> 100	> 100	> 100	> 100	> 100	> 100	–	–	–	–	–	–	–	–	55.1	–
COc1ccc(OCC(C)(C)O)cc1	> 100	> 100	> 100	> 100	> 100	> 100	> 100	> 100	> 86.9	> 100	–	–	–	–	–	–	–	–	–	–
